Test results: patent US9062041B2 (Bayer Intellectual Property GmbH, priority 2011, dated 2015)
Read-outs that look alike come from different tables or passages of the source.

Tests used:
[1] = test system: ovulated cumulus-oocyte complexes; experiment: In-vivo action on post-ovulatory in-vitro fertilization; set-up: species or system mice (strain: B6D2F1); conditions: mice
From the text: 4.3 In-Vivo Action on Post-Ovulatory In-Vitro Fertilization: Substances can exert an influence on fertility by decreasing the fertilizability of oocytes or cumulus-oocyte complexes. In order to study such effects, substances can be administered in vivo and subjected to in vitro fertilization after ovulation of cumulus-oocyte complexes has taken place. The in-vitro fertilization rate, where no test substance is any longer present, allows conclusions as to the in-vivo effects of the test substances. Immature female mice (strain: B6D2F1, Charles River, Suelzfeld, age: 19-25 days) were kept in Macrolon cages in rooms with controlled illumination (12 hrs darkness: 12 hrs light), fed with a standard diet and provided with drinking water ad libitum. The mice were primed with PMSG (pregnant mare serum gonadotropin) (10 IU/animal i.p.). After 48 hours, a stimulus triggering ovulation was created in the animals by one administration of 10 IU/animal i.p. (hCG, human chorionic gonadotropin). The test substances were dissolved in benzyl benzoate/castor oil (1+4 v/v) and administered in a volume of 0.1 ml s.c. 1 hour before hCG (n=5 animals per group). Fourteen hours after hCG administration, the animals were killed. Ovulated oocytes and cumulus-oocyte complexes were obtained from the bursa ovarii and/or oviduct and subjected to in-vitro fertilization, wherein for the fertilization a sperm count of 40000 sperms/0.5 ml was used for 1 hour. Twenty-four hours after the incubation with the sperms, the number of fertilized oocytes is established and the percentage fertilization rate determined.

[2] = target: T1, human PGD receptor (Homo sapiens, UniProt Q13258); experiment: cAMP antagonism test on the human prostaglandin D receptor (HTRF cAMP detection); format: cell-based; conditions: selectivity towards hDP, IC50 measured by cAMP antagonism test
T1 sequence (Q13258 1-359): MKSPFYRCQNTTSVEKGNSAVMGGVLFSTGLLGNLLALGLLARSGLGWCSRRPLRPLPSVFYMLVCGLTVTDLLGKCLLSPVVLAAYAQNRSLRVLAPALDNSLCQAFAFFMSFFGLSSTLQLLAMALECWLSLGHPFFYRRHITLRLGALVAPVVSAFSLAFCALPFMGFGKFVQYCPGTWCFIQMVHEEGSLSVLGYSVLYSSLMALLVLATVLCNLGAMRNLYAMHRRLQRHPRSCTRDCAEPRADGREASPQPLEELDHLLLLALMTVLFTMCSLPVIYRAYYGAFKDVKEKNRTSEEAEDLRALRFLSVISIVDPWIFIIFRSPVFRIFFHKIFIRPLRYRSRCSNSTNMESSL
In short: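 HTRF competition read-out (665/620 nm ratio ×10000), where higher FRET means less cAMP, i.e. antagonism. Compounds (0.8 nM–16.5 μM) were preincubated 20 min at RT with cells and cAMP-d2, PGD2 (3× solution, 6 nM) in IBMX-containing PBS added for 30 min at RT, then cells lysed 20 min.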

[3] = Pharmacokinetic parameters after intravenous administration; format: in vivo, rat; conditions: for half-life: plasma
Experimental: 5. Determination of the Pharmacokinetic Parameters after Intravenous Administration
5.1. Intravenous Administration:
For this, the substances were administered in dissolved form, compatible solubilizers such as PEG400 and/or ethanol being used in tolerable quantity. The substances were administered at a dosage of 0.1-1 mg/kg. The administration was effected in the female rat as a bolus injection. Here, at various times after bolus injection ca. 100-150 μl blood samples were withdrawn from the jugular vein via a catheter. The blood samples were treated with lithium-heparin as anticoagulant and stored refrigerated until further work-up. After centrifugation of the samples for 15 mins at 3000 rpm, an aliquot of 100 μl was withdrawn from the supernatant (plasma) and precipitated by addition of 400 μl of cold acetonitrile or methanol (absolute). The precipitated samples were frozen overnight at −20° C., then centrifuged once again for 15 mins at 3000 rpm, before 150 μl of the clear supernatant was withdrawn for the concentration determination. The analysis was performed with an Agilent 1200 HPLC system with attached LCMS/MS detection.
5.2 Calculation of the PK Parameters
The calculation was performed by means of the PK calculation software WinNonLin®, where t1/2 means half-life within a specified interval (here: terminal t1/2, in hrs).

[4] = after intravenous administration in the female rat, read-out: Terminal half-life t1/2 (converted)

Selectivity hEP2/hDP [2]	Terminal half-life t1/2 ([3]; after intravenous administration in the female rat)	half-life ([3]; intravenous administration, female rat, read-out: terminal half-life t1/2 (converted))	half-life [3, 4]	SMILES	% fertilization with 1 mg/kg ([1]; 1 mg/kg s.c. 1 hour before hCG, in-vitro fertilization rate)	% fertilization with 5 mg/kg ([1]; 5 mg/kg s.c. 1 hour before hCG, in-vitro fertilization rate)	% fertilization with 10 mg/kg ([1]; 10 mg/kg s.c. 1 hour before hCG, in-vitro fertilization rate)	influence on the fertilizability of ovulated cumulus-oocyte complexes ([1]; in-vivo administration)
xxx (xxx > 100)	2.5 h	2.5 h	–	COCCNC(=O)c1ccc2nn(CC3CCN(C(=O)c4ccc(Oc5ccc(C(F)(F)F)cc5)cc4)CC3)cc2c1C [Example 17, N-(2-methoxyethyl)-4-methyl-2-[(1-{4-[4-(trifluoromethyl)-phenoxy]benzoyl}-piperidin-4-yl)-methyl]-2H-indazol-5-carboxamide]	20 ± 10%	9 ± 1%	8 ± 4%	dose-dependent influence
xxx (xxx > 100)	–	–	2 h	COCCNC(=O)c1ccc2nn(CC3CN(C(=O)c4ccc(Cl)cc4)C3)cc2c1C [Example 117, 2-{[1-(4-chlorobenzoyl)azetidin-3-yl]methyl}-N-(2-methoxyethyl)-4-methyl-2H-indazol-5-carboxamide]	–	–	–	–
xxx (xxx > 100)	–	–	5.8 h	Cc1c(C(=O)NCC(F)(F)F)ccc2nn(CC3CCN(C(=O)c4ccc(Oc5ccc(F)cc5)cc4)CC3)cc12 [Example 283, 2-({1-[4-(4-fluorophenoxy)benzoyl]piperidin-4-yl}methyl)-4-methyl-N-(2,2,2-trifluoroethyl)-2H-indazol-5-carboxamide]	–	–	–	–
xxx (xxx > 100)	–	–	3.2 h	COCCNC(=O)c1ccc2nn(CC3CCN(C(=O)c4ccc(-c5ccc(F)cc5)cc4F)CC3)cc2c1C [Example 42, 2-({1-[(3,4′-difluoro-biphenyl-4-yl)-carbonyl]piperidin-4-yl}methyl)-N-(2-methoxyethyl)-4-methyl-2H-indazol-5-carboxamide]	–	–	–	–
